From patent publication US10765114B2, “4-amino-6-(pyridyl and 2-substitutedphenyl)-picolinates and 6-amino-2-(pyridyl and 2-substitutedphenyl)-pyrimidine-4-carboxylates and their use as herbicides” (Dow AgroSciences LLC, priority 2013, dated 2020)

What follows are compounds tested on Key Grass and Sedge Weeds as well as Grass Crops (assay: Post-Emergent Test II (Table 6)). Conditions: post-emergence, 336 h, CYPSS, 140 g ai/ha, 14 days after application, read-out: Visual Growth Reduction (%) 14 Days After Application CYPSS.
Assay type: in vivo
How it was run: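 Seedlings are raised 7-21 days in Metro-Mix 360 (pH 6.0-6.8) under greenhouse conditions, then sprayed at the first or second true leaf stage. Application is 187 L/ha, with serial rates down to 1/16× of the highest. Plants are subirrigated, and percent injury is rated visually after 14 days.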

| SMILES | pest or weed control at 140 g/ha |
| --- | --- |
| C=Cc1c(-c2cc(N)c(Cl)c(C(=O)OC)n2)ccc(Cl)c1F [Compound 79, methyl 4-amino-3-chloro-6-(4-chloro-3-fluoro-2-vinylphenyl)picolinate] | 95 to 100% |

Same assay, conditions: post-emergence, 336 h, DIGSA: crabgrass (Digitaria sanguinalis), 70 g ai/ha, 14 days after application, read-out: Visual Growth Reduction (%) 14 Days After Application DIGSA

| SMILES | pest or weed control at 70 g/ha |
| --- | --- |
| C=Cc1c(-c2cc(N)c(Cl)c(C(=O)OC)n2)ccc(Cl)c1F [Compound 79, methyl 4-amino-3-chloro-6-(4-chloro-3-fluoro-2-vinylphenyl)picolinate] | 0 to 29% |

Same assay, conditions: post-emergence, 336 h, DIGSA: crabgrass (Digitaria sanguinalis), 140 g ai/ha, 14 days after application, read-out: Visual Growth Reduction (%) 14 Days After Application DIGSA

| SMILES | pest or weed control at 140 g/ha |
| --- | --- |
| C=Cc1c(-c2cc(N)c(Cl)c(C(=O)OC)n2)ccc(Cl)c1F [Compound 79, methyl 4-amino-3-chloro-6-(4-chloro-3-fluoro-2-vinylphenyl)picolinate] | 0 to 29% |

Same assay, conditions: post-emergence, 336 h, ECHSS, 70 g ai/ha, 14 days after application, read-out: Visual Growth Reduction (%) 14 Days After Application ECHSS

| SMILES | pest or weed control at 70 g/ha |
| --- | --- |
| C=Cc1c(-c2cc(N)c(Cl)c(C(=O)OC)n2)ccc(Cl)c1F [Compound 79, methyl 4-amino-3-chloro-6-(4-chloro-3-fluoro-2-vinylphenyl)picolinate] | 0 to 29% |

Same assay, conditions: post-emergence, 336 h, ECHSS, 140 g ai/ha, 14 days after application, read-out: Visual Growth Reduction (%) 14 Days After Application ECHSS

| SMILES | pest or weed control at 140 g/ha |
| --- | --- |
| C=Cc1c(-c2cc(N)c(Cl)c(C(=O)OC)n2)ccc(Cl)c1F [Compound 79, methyl 4-amino-3-chloro-6-(4-chloro-3-fluoro-2-vinylphenyl)picolinate] | 0 to 29% |

Same assay, conditions: post-emergence, 336 h, ORYSS (crop), 70 g ai/ha, 14 days after application, read-out: Visual Growth Reduction (%) 14 Days After Application ORYSS

| SMILES | pest or weed control at 70 g/ha |
| --- | --- |
| C=Cc1c(-c2cc(N)c(Cl)c(C(=O)OC)n2)ccc(Cl)c1F [Compound 79, methyl 4-amino-3-chloro-6-(4-chloro-3-fluoro-2-vinylphenyl)picolinate] | 0 to 29% |

Same assay, conditions: post-emergence, 336 h, ORYSS (crop), 140 g ai/ha, 14 days after application, read-out: Visual Growth Reduction (%) 14 Days After Application ORYSS

| SMILES | pest or weed control at 140 g/ha |
| --- | --- |
| C=Cc1c(-c2cc(N)c(Cl)c(C(=O)OC)n2)ccc(Cl)c1F [Compound 79, methyl 4-amino-3-chloro-6-(4-chloro-3-fluoro-2-vinylphenyl)picolinate] | 0 to 29% |

Same assay, conditions: post-emergence, 336 h, SETFA: giant foxtail (Setaria faberi), 70 g ai/ha, 14 days after application, read-out: Visual Growth Reduction (%) 14 Days After Application SETFA

| SMILES | pest or weed control at 70 g/ha |
| --- | --- |
| C=Cc1c(-c2cc(N)c(Cl)c(C(=O)OC)n2)ccc(Cl)c1F [Compound 79, methyl 4-amino-3-chloro-6-(4-chloro-3-fluoro-2-vinylphenyl)picolinate] | 0 to 29% |

Same assay, conditions: post-emergence, 336 h, SETFA: giant foxtail (Setaria faberi), 140 g ai/ha, 14 days after application, read-out: Visual Growth Reduction (%) 14 Days After Application SETFA

| SMILES | pest or weed control at 140 g/ha |
| --- | --- |
| C=Cc1c(-c2cc(N)c(Cl)c(C(=O)OC)n2)ccc(Cl)c1F [Compound 79, methyl 4-amino-3-chloro-6-(4-chloro-3-fluoro-2-vinylphenyl)picolinate] | 0 to 29% |

Same assay, conditions: post-emergence, 336 h, SORVU: grain sorghum (Sorghum vulgare), 70 g ai/ha, 14 days after application, read-out: Visual Growth Reduction (%) 14 Days After Application SORVU

| SMILES | pest or weed control at 70 g/ha |
| --- | --- |
| C=Cc1c(-c2cc(N)c(Cl)c(C(=O)OC)n2)ccc(Cl)c1F [Compound 79, methyl 4-amino-3-chloro-6-(4-chloro-3-fluoro-2-vinylphenyl)picolinate] | 0 to 29% |

Same assay, conditions: post-emergence, 336 h, SORVU: grain sorghum (Sorghum vulgare), 140 g ai/ha, 14 days after application, read-out: Visual Growth Reduction (%) 14 Days After Application SORVU

| SMILES | pest or weed control at 140 g/ha |
| --- | --- |
| C=Cc1c(-c2cc(N)c(Cl)c(C(=O)OC)n2)ccc(Cl)c1F [Compound 79, methyl 4-amino-3-chloro-6-(4-chloro-3-fluoro-2-vinylphenyl)picolinate] | 30 to 44% |

Same assay, conditions: post-emergence, 336 h, TRZSS (crop), 70 g ai/ha, 14 days after application, read-out: Visual Growth Reduction (%) 14 Days After Application TRZSS

| SMILES | pest or weed control at 70 g/ha |
| --- | --- |
| C=Cc1c(-c2cc(N)c(Cl)c(C(=O)OC)n2)ccc(Cl)c1F [Compound 79, methyl 4-amino-3-chloro-6-(4-chloro-3-fluoro-2-vinylphenyl)picolinate] | 0 to 29% |

Same assay, conditions: post-emergence, 336 h, TRZSS (crop), 140 g ai/ha, 14 days after application, read-out: Visual Growth Reduction (%) 14 Days After Application TRZSS

| SMILES | pest or weed control at 140 g/ha |
| --- | --- |
| C=Cc1c(-c2cc(N)c(Cl)c(C(=O)OC)n2)ccc(Cl)c1F [Compound 79, methyl 4-amino-3-chloro-6-(4-chloro-3-fluoro-2-vinylphenyl)picolinate] | 0 to 29% |

Same assay, conditions: post-emergence, 336 h, ZEAMX: maize, corn (Zea mays), 70 g ai/ha, 14 days after application, read-out: Visual Growth Reduction (%) 14 Days After Application ZEAMX

| SMILES | pest or weed control at 70 g/ha |
| --- | --- |
| C=Cc1c(-c2cc(N)c(Cl)c(C(=O)OC)n2)ccc(Cl)c1F [Compound 79, methyl 4-amino-3-chloro-6-(4-chloro-3-fluoro-2-vinylphenyl)picolinate] | 0 to 29% |

Same assay, conditions: post-emergence, 336 h, ZEAMX: maize, corn (Zea mays), 140 g ai/ha, 14 days after application, read-out: Visual Growth Reduction (%) 14 Days After Application ZEAMX

| SMILES | pest or weed control at 140 g/ha |
| --- | --- |
| C=Cc1c(-c2cc(N)c(Cl)c(C(=O)OC)n2)ccc(Cl)c1F [Compound 79, methyl 4-amino-3-chloro-6-(4-chloro-3-fluoro-2-vinylphenyl)picolinate] | 0 to 29% |
